This is an account of results in ChEMBL document CHEMBL1201862, “PubChem BioAssay data set” (2004).

In data set [1] the target is T1, Heat shock factor protein 1 (Mus musculus, UniProt P38532).
T1 sequence (P38532 whole entry): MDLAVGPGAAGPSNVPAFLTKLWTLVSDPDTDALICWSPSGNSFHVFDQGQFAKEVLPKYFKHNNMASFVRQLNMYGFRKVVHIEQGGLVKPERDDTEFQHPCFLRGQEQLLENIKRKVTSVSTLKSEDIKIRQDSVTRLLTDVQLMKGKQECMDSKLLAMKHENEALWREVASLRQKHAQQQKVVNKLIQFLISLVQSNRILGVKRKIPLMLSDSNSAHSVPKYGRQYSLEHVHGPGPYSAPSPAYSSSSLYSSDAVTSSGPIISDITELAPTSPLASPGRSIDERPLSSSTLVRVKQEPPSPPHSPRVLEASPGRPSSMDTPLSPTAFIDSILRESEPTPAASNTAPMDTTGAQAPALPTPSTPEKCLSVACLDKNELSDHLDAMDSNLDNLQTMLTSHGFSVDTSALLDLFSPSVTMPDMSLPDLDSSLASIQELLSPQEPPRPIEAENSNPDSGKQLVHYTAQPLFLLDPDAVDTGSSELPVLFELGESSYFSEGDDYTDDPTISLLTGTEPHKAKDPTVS
In words: decrease of HSF1-responsive luciferase luminescence – cell-based, NIH3T3, dose retest, confirmation (AID 2382).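 Further: NIH3T3 fibroblasts with HSF1-driven luciferase reporter stressed by proteasome inhibitor MG132; luminescence from HSF1-driven luciferase expression after 8 hours of MG132 stress.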 The data set is classed as functional.

For a further data set, the target named is Cytochrome P450 3A4 (Homo sapiens, UniProt P08684).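 Further: CYP3A4 tested as one member of a cytochrome P450 panel screen.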
Sequence of Cytochrome P450 3A4 (P08684 whole entry): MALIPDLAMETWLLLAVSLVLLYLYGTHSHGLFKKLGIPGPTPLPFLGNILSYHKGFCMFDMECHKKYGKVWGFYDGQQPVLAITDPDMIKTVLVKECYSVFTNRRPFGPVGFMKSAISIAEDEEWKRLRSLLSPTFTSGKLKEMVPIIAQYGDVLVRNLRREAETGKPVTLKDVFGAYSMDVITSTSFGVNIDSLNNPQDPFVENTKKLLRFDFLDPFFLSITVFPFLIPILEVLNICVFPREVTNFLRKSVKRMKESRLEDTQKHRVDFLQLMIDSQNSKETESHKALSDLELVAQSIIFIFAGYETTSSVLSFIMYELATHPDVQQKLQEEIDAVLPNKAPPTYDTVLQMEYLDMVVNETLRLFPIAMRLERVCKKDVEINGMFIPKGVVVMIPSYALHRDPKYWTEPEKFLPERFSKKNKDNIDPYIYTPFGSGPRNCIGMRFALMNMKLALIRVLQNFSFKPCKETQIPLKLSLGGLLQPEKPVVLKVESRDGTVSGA
Data set [2] is described as follows: NIH3T3 cell viability loss – ATP luminescence, mouse fibroblasts, counter-screen, dose response (AID 2010).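 Further: cells exposed to compound for about 90 hours before reading.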 Type of data set: functional, cell-based.
A short description of data set [3]: Trypanosoma cruzi growth suppression in host cells – NIH3T3 host cells, beta-gal luminescence, confirmation (AID 2044).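 Further: intracellular parasites grown in NIH/3T3 mouse fibroblasts as host cells; luminescent beta-galactosidase reporter signal from transgenic T. cruzi replicating inside host cells; inhibitors lower the luminescence signal.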 The data set is classed as functional, cell-based.
The target of the next data set is Cytochrome P450 2C19 (Homo sapiens, UniProt P33261). In words: Cytochrome panel assay with activity outcomes. Panel member name: p450-cyp2c19 Compounds with AC50 equal or less than 10 uM are considered active. Type of data set: functional.
Sequence of Cytochrome P450 2C19 (P33261 whole entry): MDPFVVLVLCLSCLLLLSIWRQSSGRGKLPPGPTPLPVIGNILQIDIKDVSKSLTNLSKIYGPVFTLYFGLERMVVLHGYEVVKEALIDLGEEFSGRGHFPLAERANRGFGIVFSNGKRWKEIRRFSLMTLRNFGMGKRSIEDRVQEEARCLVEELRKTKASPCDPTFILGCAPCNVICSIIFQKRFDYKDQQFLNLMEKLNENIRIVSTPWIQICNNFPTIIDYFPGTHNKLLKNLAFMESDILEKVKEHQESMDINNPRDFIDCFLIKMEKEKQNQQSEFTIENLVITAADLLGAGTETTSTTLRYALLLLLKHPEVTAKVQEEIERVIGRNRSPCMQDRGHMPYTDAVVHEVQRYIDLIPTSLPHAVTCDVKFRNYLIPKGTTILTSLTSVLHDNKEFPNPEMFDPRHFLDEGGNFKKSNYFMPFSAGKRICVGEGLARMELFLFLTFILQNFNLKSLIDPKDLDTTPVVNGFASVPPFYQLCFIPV
Data set [4] in a line: luciferase reporter signal suppression in cells – H4 neuroglioma cells, luminescence, dose response (AID 1990). The data set is classed as functional, cell-based. For orientation: Reporter assays use an easily measured gene product as a stand-in for the process of interest.
Data set [5] is described as follows: Luminescence Cell-Based Dose Response HTS to Identify Inhibitors of 5'UTR Stem-Loop Driven Prion Protein mRNA Translation in H4 Neuroglioblastoma Cells. [Related pubchem assays: 1827 (Project Summary), 1813 (Primary HTS)]. Type of data set: functional.
A short description of data set [6]: alpha-synuclein stem-loop luciferase translation blockers – H4 neuroglioma cells, luminescence, confirmation (AID 1988). Type of data set: functional, cell-based.

Usually EC50 stands for the concentration needed to bring the measured effect to its halfway point. The term AC50 denotes the midpoint of the concentration-response curve, whichever way the signal moves.

The source made the active and inactive calls.

Regarding `O=C(/C=C/c1ccccc1)NC(=S)N1CCSCC1`, in data set [1], the EC50 is recorded as > 195 µM (not active).
`O=C(Cc1ccccc1)NCCSCc1ccc(Cl)cc1`: the AC50 at Cytochrome P450 3A4 is 14.1 µM (inconclusive).
With `Nc1nc(NC(=O)C(Cl)(Cl)Cl)nn1-c1ccccc1`, the EC50 in data set [1] was > 195 µM (not active).
In the case of `C/C(=N\CCc1c(C)[nH]c2ccc(OCc3ccccc3)cc12)C1=C(O)CC(c2ccccc2)CC1=O` (stereo not drawn), the EC50 in data set [2] is > 60 µM (not active); in data set [3], 2.1 µM (active).
With `COc1ccc(/C=C2\CCCC3C2=NN(C(=O)COC(=O)CNC(=O)c2ccccc2)C3c2ccc(OC)cc2)cc1` (stereo not drawn), the EC50 in data set [1] is > 195 µM (not active).
As for `CC1CCCC(C)N1CC(O)COCC1COc2ccccc2O1.Cl` (stereo not drawn), the AC50 entry at Cytochrome P450 2C19 was “inconclusive”.
With `CCc1cc2c(nc1CC)CCN(CC/C(C)=N/OC[C@@H](C)[C@H](OCc1ccccc1)C(C)C)C2`, the AC50 at Cytochrome P450 3A4 was 3.98 µM (inconclusive).
As for `COC(=O)c1ccc(COc2cccc3c2CCN(Cc2cccc(C)c2)C3=O)o1`, the EC50 in data set [4] is > 120 µM (not active); in data set [5] it was > 120 µM (not active); in data set [6] it was 107 µM (active).
In the case of `COc1cc(OC)c(OC)cc1/C=N/NC(=S)NCC1CCCO1` (stereo not drawn), in data set [1], the EC50 is listed as > 195 µM (not active).
Same read-out and setting: with `Cc1ccc([N+](=O)[O-])c(OCCCN2CCC(Cc3ccccc3)CC2)c1` the figure was > 195 µM (not active).
As to `COc1ccc(OC)c(C2CC(=O)Nc3[nH]nc(-c4ccccc4)c32)c1` (stereo not drawn), the EC50 in data set [4], in data set [5] and in data set [6] was > 120 µM (not active) each time.
Consider `CC(CCCC(C)(C)O)NC(=O)c1ccc2oc(CCc3ccccc3)nc2c1` (stereo not drawn), for which, in data set [1], the EC50 was > 195 µM (not active).
With `COc1cccc(-n2c(SCC(=O)Nc3sc4c(c3C(N)=O)CCC4)nc3ccccc3c2=O)c1`, the values for the half-maximal effective concentration (EC50) in data set [2] and in data set [3] were > 60 µM (not active) and 2.9 µM (active), respectively.
On to `CN1CC[C@@]2(CCCN(C(=O)c3cccn3C)C2)C1`, for which the AC50 on Cytochrome P450 3A4 was 7.94 µM (inconclusive).
In the case of `CCOC(=O)CCCNC(=O)CCCNC(=O)C(c1ccccc1)c1ccccc1`, the values for the AC50 at Cytochrome P450 2C19 (read-out: AC50) and on Cytochrome P450 3A4 were 14.1 µM (inconclusive) and 8.91 µM (inconclusive), respectively.
As for `CCOC(=O)Cc1cnc(NC(=O)c2ccccc2)s1`, in data set [1], the EC50 is > 195 µM (not active).
As for `O=C(c1ccc(SCc2cccc(Br)c2)c([N+](=O)[O-])c1)N1CCN(c2ccccn2)CC1`, the figures for the EC50 in data set [2] and in data set [3] were > 60 µM (not active) and 2.08 µM (active), respectively.
As to `Cc1ccc(-c2nnc(N3CCN(C(=O)c4cccs4)CC3)c3ccccc23)cc1`, the EC50 in data set [4] is > 120 µM (not active); in data set [5], > 120 µM (not active); in data set [6], 22 µM (active).
For `Cc1cc(CN2CCN(CCC#N)CC2)c(O)c(C2(C)CCCCC2)c1`, the EC50 in data set [2] was > 60 µM (not active); in data set [3], 1.1 µM (active).
As for `Nc1cc(Cl)ccc1Oc1ccccc1`, the AC50 at Cytochrome P450 3A4 is 22.4 µM (inconclusive).
Still for that read-out and setting: the figure for `CSCC[C@H](NC(=O)CC(C)(C)C)c1nc2ccccc2[nH]1` is 15.8 µM (inconclusive); for `CC(=O)c1[nH]c(C)c(C(C)=O)c1C` it is 20 µM (inconclusive).
In the case of `COc1cccc2cc(C(=O)NCc3ccco3)/c(=N/c3ccc(C(=O)O)cc3)oc12`, in data set [1], the EC50 is listed as > 195 µM (not active).
In the case of `Cn1cccc1C(=O)N1CCC2(CCCN(C(=O)Nc3ccccc3)C2)CC1`, on Cytochrome P450 3A4, the AC50 was 31.6 µM (inconclusive).
For `COc1ccc(C)cc1S(=O)(=O)Nc1cc2c3c(c1)CCC(=O)N3CCC2`, the EC50 in data set [1] is > 195 µM (not active).
The same measure, in the same setting: with `CCOc1cc(OCC)cc(C(=O)O)c1` the figure was > 195 µM (not active); with `CC(C)(C)OC(=O)N1CCN(C(=O)c2[nH]cnc2C(=O)NCC(=O)OCc2ccccc2)CC1`, > 195 µM (not active).
As to `Cc1ccc(S(=O)(=O)c2c(C)cc(C)nc2Cl)c(C)c1`, the figures for the EC50 in data set [2] and in data set [3] were > 60 µM (not active) and 2 µM (active), respectively.
Regarding `COc1ccc(C(=O)NCc2nnc(SCC(=O)N3CCC(C)CC3)o2)cc1OC`, the EC50 in data set [1] is reported as > 195 µM (not active).
`Oc1ccc(OCc2ccccc2)cc1` [MONOBENZONE]: the AC50 on Cytochrome P450 2C19 (read-out: AC50) is 6.31 µM (inconclusive).
For `CCOC(=O)c1ccc(-c2c(-c3cc(OC)c(OC)c(OC)c3)noc2C)cc1F`, the EC50 in data set [4] was 9.94 µM (inconclusive); in data set [5], 11.4 µM (active); in data set [6] it was 1.43 µM (active).
Take `CCOc1c(C)cc(S(=O)(=O)NCc2cccnc2)c(C)c1C`: the EC50 in data set [1] was > 195 µM (not active).
Take `C=CCOc1ccc(/C=C/C(=O)OCC(=O)NCC2CCCCC2)cc1`: the EC50 in data set [1] is recorded as > 195 µM (not active).
Turning to `O=C(Nc1nc(-c2ccccc2)cs1)C1CCCCN1S(=O)(=O)c1ccc(Cl)cc1` (stereo not drawn), the values for the EC50 in data set [2] and in data set [3] were > 60 µM (not active) and 2.22 µM (active), respectively.
Regarding `O=C1[C@H]2[C@H]3[C@H](O)[C@H](O)C/C(=N/OC[C@@H](O)COCc4ccco4)[C@@H]3CC[C@@H]2C(=O)N1c1cccc(Oc2ccccc2)c1`, the concentration at half-maximal activity (AC50) on Cytochrome P450 3A4 was 7.94 µM (inconclusive).
With `CO[C@@H]1COC(=O)CCC[C@@H](C)[C@H](OC)COC(=O)[C@H](Cc2ccccc2)NC(=O)C/C=C\[C@H]1C`, the AC50 on Cytochrome P450 2C19 (read-out: AC50) is 0.00251 µM (inconclusive).
Same read-out and setting: the figure for `CC(C)c1cccc2cc3c(nc12)-c1cccc(=O)n1C3` is 39.8 µM (inconclusive).
With `COC(=O)C1=C(C)N(CCc2c[nH]c3ccc(OC)cc23)C(=O)C1`, the EC50 in data set [4], in data set [5] and in data set [6] was > 120 µM (not active) in each case.
Turning to `COc1ccc(CN(CC2CCC(C(=O)O)CC2)C(=S)Nc2ccc(C)c(Cl)c2)cc1` (stereo not drawn), the EC50 in data set [2] and in data set [3] was > 60 µM (not active) throughout.
As to `CC(=O)C1=C(O)C=C(c2ccco2)CC1c1ccco1` (stereo not drawn), the results for the AC50 on Cytochrome P450 2C19 (read-out: AC50) and on Cytochrome P450 3A4 were 2.24 µM (inconclusive) and 20 µM (inconclusive), respectively.
As for `Cc1cccc(C)c1NC(=O)c1cc2c(=O)c3ccccc3oc2nc1C(F)(F)F`, the AC50 entry was “inconclusive” on Cytochrome P450 2C19 and 0.0501 µM (inconclusive) on Cytochrome P450 3A4.
For `Cc1ccc(N(C)C(=O)CN(C)S(=O)(=O)c2ccc3c(c2)n(C)c(=O)c(=O)n3C)cc1`, the concentration for a half-maximal effect (EC50) in data set [1] is listed as > 195 µM (not active).
With `O=C(Nc1c2c(nn1-c1ccc(F)cc1)CS(=O)(=O)C2)C12CC3CC(CC(C3)C1)C2`, the AC50 result on Cytochrome P450 2C19 was “inconclusive”.
With `COc1ccc(C(=O)N2CCC3(CCCN(CC(C)C)C3)CC2)cc1`, on Cytochrome P450 3A4, the AC50 is 25.1 µM (inconclusive).
Consider `N#CCn1c2ccccc2c2nc3ccccc3nc21`, for which the EC50 in data set [4] is 23.3 µM (active); in data set [5], > 120 µM (not active); in data set [6] it was > 120 µM (not active).
As for `S=C(Nc1ccc(Br)cc1Cl)NC1CCN(Cc2ccccc2)CC1`, the EC50 in data set [2] was > 30 µM (not active); in data set [3], 0.228 µM (active).
Take `CCn1c(SCC(=O)Nc2nc(C)c(C)s2)nnc1-c1cccnc1`: the EC50 in data set [4], in data set [5] and in data set [6] was > 120 µM (not active) throughout.
Regarding `COC(=O)C1=CN(Cc2ccc(OC)c(OC)c2)C=C(C(=O)OC)C1c1cccc(F)c1`, the EC50 in data set [4] was 15.1 µM (active); in data set [2], > 60 µM (not active); in data set [5], > 120 µM (not active); in data set [3] it was 0.156 µM (active); in data set [6] it was 65.7 µM (active).
Consider `Cc1ccc(-c2nnn(CC(=O)N(Cc3cccs3)C(C(=O)NC3CCCC3)c3ccncc3)n2)cc1` (stereo not drawn), for which the EC50 in data set [1] was > 195 µM (not active).
Turning to `COc1ccc(CN2CC(=O)N(c3ccc(C)c(C)c3)C2=S)cc1OC`, the EC50 in data set [4] was 21.3 µM (active); in data set [5] it was > 120 µM (not active); in data set [6], 20.4 µM (active).
As to `C/C(=N\Nc1nnc(-c2ccccc2)c(-c2ccccc2)n1)c1cccc([N+](=O)[O-])c1`, the AC50 was 17.8 µM (inconclusive) at Cytochrome P450 2C19 (read-out: AC50) and 35.5 µM (inconclusive) at Cytochrome P450 3A4.
As for `O=[N+]([O-])c1ccccc1/C=N/n1c(S)nnc1COc1ccccc1`, the AC50 at Cytochrome P450 2C19 (read-out: AC50) is 11.2 µM (inconclusive).
On to `Oc1nc(CN2CCN(C/C=C/c3ccccc3)CC2)nc2cc(Cl)ccc12`, for which the results for the EC50 in data set [2] and in data set [3] were > 60 µM (not active) and 0.405 µM (active), respectively.
The corresponding values for `Cc1ccc(N2C(=O)c3ccccc3NC2C(C)Cc2ccc3c(c2)OCO3)cc1` (stereo not drawn) are > 30 µM (not active) and 2.61 µM (active).
